Data set [1] relates to acute cerebral ischemic infarction (MCAO model). Nature of the data set: Cerebral infarction in acute ischemic stroke, suture-occluded MCAO model. It is filed as in vivo, Wistar rat. The conditions noted are these: for therapeutic effect on cerebral infarction (words): 3 days after modeling. As to the method: 1. Experimental animals: […] Wistar male rats (230-250 g), provided by Lanzhou Veterinary Research Institute, Chinese Academy of Agricultural Sciences. 2. […] MCAO model (Middle Cerebral Artery Obstruction in rats) was established through suture-occlusion, and the rats were intraperitoneally injected with 10% chloral hydrate at a dosage of 400 mg/kg for anesthetization. The rats were fixed with supine position method to expose the neck. It was shaved and the skin was cleaned for skin incision. Under gentle operations, the main blood vessels such as left common carotid artery, arteria carotis interna, and arteria carotis externa were separated. The arteria carotis externa was selected to be ligated and disconnected, to avoid the bleeding of the common carotid artery. The common carotid artery was temporarily clamped with an arterial clip. A small opening was cut at the end of arteria carotis […], and used for the placement of the suture-occlusion. The round head of the prepared suture-occlusion was held by the ophthalmic tweezer and gently inserted, with a controlled depth of about 1.8-2.0 cm. The incision was sutured conventionally. After 0.5 h of cerebral ischemia, the suture-occlusion was removed to restore the blood supply. At a certain time after administration, the rats were sacrificed. The brain tissue was stained with 0.5% 2,3,5-triphenyltetrazolium chloride […], and the cerebral infarction area was scanned and calculated, wherein the normal tissue was stained in red and the infarcted tissue was stained in white. 3. Animal grouping: The animals were grouped as follows: the model group (acute ischemia and hypoxia pathological model, administrated with an equal dosage of physiological saline containing 8% Tween-80), the sham operation group (not administrated, as the negative control, administrated with an equal dosage of physiological saline containing 8% Tween-80), the prevention group (administrated 3 days in advance), and treatment group (administrated for 3 days after the blood supply was restored from embolism). 4. Method of administration: […] Results: […] A. Negative model control, infarct area: 30.57%; B. […] C.

Data set [2] is described as follows: In vivo pharmacokinetics in rats (gavage and intravenous injection), plasma HPLC-DAD. Also noted: species or system Wistar rats; T1/2ka: unit not given here. The conditions noted are these: rat. As to the method: Certain amounts of N-cyclopropyl-3-n-butyl-3-hydroxy-ligusticum lactam and N-cyclopropyl-3-n-butyl-3-hydroxy-phthalide lactam standards were accurately weighed respectively, and dissolved and diluted in the methanol to obtain 2.0 mg/mL of standard stock solutions. Certain standard stock solutions were accurately weighed and mixed respectively, and diluted with methanol to […], 0.7813, 1.5625, 3.1250, 6.2500, 12.500, 25.0000, 50.0000, and 500.0 μg/mL. 20 uL of each sample was analyzed by HPLC system, to sequentially determine N-cyclopropyl-3-n-butyl-3-hydroxy-ligusticum lactam and N-cyclopropyl-3-n-butyl-3-hydroxy-phthalide lactam. The peak area (A) was linearly regressed with the concentration C (g/mL), to obtain the regression equation and linear range, detection limit (LOD), and quantification limit (LOQ).
1.2 Preparation method for test sample: The compound prepared according to Example 7 (the content of N-cyclopropyl-3-n-butyl-3-hydroxy-ligusticum lactam is 92.5%; and the content of the compound N-cyclopropyl-3-n-butyl-3-hydroxy-phthalide lactam is 7.5%) was prepared into the raw stock solution at a concentration of 15 mg/mL by 10% ethanol, 20% Tween 80, and 70% physiological saline. The rats were dosed based on the body weights, with a dosage of 90 mg/Kg by oral administration (by gavage) and a dosage of 40 mg/Kg by intravenous injection.
1.3 Pretreatment method for plasma sample: 0.5 mL of rat whole blood was taken and placed in a 1.5 mL centrifuge tube with 20 uL sodium heparin therein, and centrifuged at a high rotation rate of 4×10^3 r·min^−1 for 5 min. 200 μL of plasma was taken and 800 μL of dichloromethane was added. The mixture was vortexed and centrifuged for 10 min at a rotation rate of […]. The lower layer solution was separate and blown to dryness with nitrogen gas at room temperature, and then reconstituted with 300 μL of methanol. The solution was eluted, filtered, and dried to dryness with nitrogen. After adding 30 μL of methanol, the solution was centrifuged, and 20 μL of the supernatant was used to determine the peak areas by HPLC.
1.4 Determination of pharmacokinetic parameters of phthalide derivatives in rats. Twelve male Wistar rats were randomly divided into two groups, wherein 6 rats were administrated with 40 mg/kg of phthalide derivative (the intravenous injection group (i.v.)). At 0 (pre-dose), 0.167, 0.333, 0.5, 1, 2, 3, 4, and 6 hours after administration, about 500 μL of blood was collected from the Angulus oculis, respectively, and 200 μL of plasma was frozen after anticoagulation treatment and centrifugation. 6 rats in the gavage administration (po) group were administrated by 90 mg/kg of phthalide derivative. At 0 (pre-dose), 0.5, 1, 2, 3, 4, 6, 8, 10, and 12 h after administration, about 500 μL of blood was collected from the Angulus oculis, respectively, and 200 μL of plasma was frozen after anticoagulation treatment and centrifugation. The plasma samples were warmed to the room temperature before pretreatment, and 20 μL of the sample solutions were analyzed by liquid chromatography. The blood drug concentration at each time point was calculated according to the standard curve. The dose-time curve was fitted using DAS2.0 software and the pharmacokinetic parameters were calculated. FIGS. 18 and 19 show the dose-time curves by gavage administration and intravenous injection, respectively.

Data set [3] has as its system PC12 cells. Kind of data set: Protection against hydrogen peroxide-induced oxidative damage to PC12 nerve cells (MTT). In kind it is cell-based. Particulars: for protective effect on PC12 nerve cells against hydrogen peroxide (comparison in words): 2.5-50 μM, 250 μM H2O2, FIG. 16. On the procedure: 2. Method: PC12 cells were cultured as follows. PC12 cells were inoculated into the high-glucose DMEM medium containing 10% fetal bovine serum, penicillin 100 U mL^−1, and streptomycin 100 μg mL^−1, and cultured in the cell incubator at 37° C. under 5% CO2. The medium was changed every other day. The cells were routinely trypsinized and passaged. The cells were used for experiments when they reached 70-80% confluence.
4. Oxidative damage modeling: PC12 cells in the logarithmic growth phase were inoculated into a 96-well cell culture plate at a density of 5×10^3 cells/well. H2O2 was added at different concentrations, and cultured for 4 h. MTT was added according to the above MTT assay, and A value of each well was measured. The H2O2 concentration at which the cell viability was reduced by 50% was finally selected as the modelling concentration.
Therefore, 250 μM was selected as the induction concentration of nerve cell oxidative damage.
5. Grouping and drug treatment: The experimental groups was divided into the normal blank control group, the H2O2 model group (250 μM), concentration groups (2.5 μM, 5.0 μM, 10 μM, 25 μM, 50 μM) for phthalides and their derivatives, and the positive control group (butylphthalide). Each group for phthalides and their derivatives as well as the positive control group were added with 250 μM H2O2, respectively. In the experiment, the solutions of phthalides and their derivatives were first added respectively, so that the final concentrations reached the corresponding values. After 4 h, H2O2 was added, and MTT was added after 24 h. The A value was measured to calculate the cell viability.

The test system of data set [4] is β-amyloid-induced neurotoxicity. The conditions noted are these: through p38 and PI3K/Akt signaling pathways; cited from earlier work.
Setting [5] is: treatment group, dosed for 3 days after modeling, 40 mg/kg, intraperitoneal injection.
Setting [6] is: male, Wistar, in vivo, iv, 40 mg/kg.
Where [7] appears, read: male, Wistar, in vivo, po, 90 mg/kg.
Setting [8] is: Rattus norvegicus, PC-12, read-out: cell viability.
[9] abbreviates: po (gavage), 90 mg/kg of Example 7 mixture.

These results are taken from US11919857B2, “Phthalide derivative, preparation method and use thereof” (LANZHOU INSTITUTE OF CHEMICAL PHYSICS, CHINESE ACADEMY OF …, priority 2018, dated 2024).

Take `CCCCC1(O)C2=C(C=CCC2)C(=O)N1C1CC1` (racemic) [ligustilide derivative, N-cyclopropyl-3-n-butyl-3-hydroxy-ligusticum lactam]: in data set [1] (prevention group, pre-dosed for 3 days, modeling, dosed for another 3 days, intraperitoneal injection, model control 30.57%), the infarct area amounted to 22%. Also, the “anti-embolic effect” value in data set [1] (prevention group, survived animals) is given as “relatively weak anti-embolic effects”. In data set [1] (treatment group, 40 mg/kg, intraperitoneal injection, 40 mg/kg), the “therapeutic effect on cerebral infarction (words)” value is recorded as “complete recanalization”. Also, in data set [1] (treatment group, 40 mg/kg, intraperitoneal injection, listed as N-cyclopropyl-3-n-butyl-3-hydroxy-ligusticum lactam, 40 mg/kg), the “therapeutic effect on cerebral infarction (words)” value is reported as “effectively prevent the occurrence of cerebral infarction”. Also, in data set [1] (setting [5]), the “infarct area, middle portion” value worked out at 0% and the “infarct area, right side, calculated according to the edema removal method” value is given as “negative value”. The “infarct area, left side” value in data set [1] (treatment group, dosed for 3 days after modeling, 40 mg/kg, intraperitoneal injection, model control 30.57%) is 4%. Also, in data set [2] (setting [6]), the AUC(0-inf) – broadly, the area under the concentration-time curve extrapolated to infinity – came to 12100 ng·h/mL; the AUC(0-t) (as a rule, exposure summed from dosing to a finite time, without extrapolation to infinity) amounted to 6020 ng·h/mL; the CL1 stood at 5445.044 L/h/kg; the CL2 came to 20518.475 L/h/kg. Moreover, in data set [2] (setting [6]), the K10 was determined as 1.456 h⁻¹, the K12 was determined as 5.488 h⁻¹, the K21 was 1.17 h⁻¹ and the “R_AUC(t/∞)” value turned out to be 49.7%. In data set [2] (setting [6]), the V1 is reported as 3739.124 L/kg, the V2 was found to be 17537.504 L/kg, the t1/2α was 5.28 min and the t1/2β was determined as 3.213 h. In data set [2] (setting [7]), the total exposure AUC(0-inf) stood at 37100 ng·h/mL, the exposure AUC(0-t) stood at 35300 ng·h/mL, the CL1 is listed as 2719.904 L/h/kg and the CL2 worked out at 1163.858 L/h/kg. Besides, in data set [2] (setting [7]), the CL3 amounted to 65.258 L/h/kg; the maximum concentration (Cmax) (in general, the maximum level reached in the sampled fluid or tissue) turned out to be 8820 ng/mL; the K10 was 3.763 h⁻¹; the K12 worked out at 1.61 h⁻¹. In data set [2] (setting [7]), this compound had a K13 of 0.09 h⁻¹, a K21 of 0.684 h⁻¹, a K31 of 0.272 h⁻¹ and a Ka of 4.021 h⁻¹. Moreover, in data set [2] (setting [7]), the “R_AUC(t/∞)” value was 95.4%; the T1/2ka was determined as 0.172; the Tmax (as a rule, the time at which the peak concentration occurs) stood at 1.2 h; the V1 was found to be 722.758 L/kg. In data set [2] (setting [7]), this compound gave a V2 of 1701.61 L/kg, a V3 of 240.115 L/kg, a t1/2α of 7.32 min and a t1/2β of 1.478 h. In data set [2] (setting [7]), the t1/2γ is listed as 2.643 h. The “protective effect on PC12 nerve cells against hydrogen peroxide (comparison in words)” value (“protective effect on PC12 nerve cells” for short) in data set [3] was “strongest protective effect”. In addition, in data set [3] (setting [8]), the viability (usually the share of living cells, or the viability signal relative to a control) at 2.5 µM turned out to be 80% and the viability at 10 µM was determined as 95%.

On to `CCCCC1OC(=O)c2ccccc21` (centres unmarked) [butylphthalide, reference compound], for which, in data set [3] (drug positive control group, 250 μM H2O2, concentration not given), the cell viability (as a rule, a read-out of living cells in per cent, often relative to untreated cells) was found to be 68%.

Turning to `CCC/C=C1\OC(=O)C2=C1CCC=C2` [ligustilide, reference compound], in data set [4], the “concentration at which β-amyloid-induced neurotoxicity is inhibited” value was 1 to 30 µM. Also, the “protective effect on PC12 nerve cells” value in data set [3] is given as “stronger than that of n-butenylphthalide”.

Regarding `CCCCC1(O)c2ccccc2C(=O)N1C1CC1` (centres unmarked) [n-butenylphthalide derivative, N-cyclopropyl-3-n-butyl-3-hydroxy-phthalide lactam], in data set [2] (setting [9]), the CL1 is given as 893.769 L/h/kg, the CL2 came out at 802.825 L/h/kg, the CL3 was -50.58 L/h/kg and the K10 is 1.689 h⁻¹. In data set [2] (setting [9]), the K12 was determined as 1.517 h⁻¹, the K13 was -0.096 h⁻¹, the K21 worked out at 0.543 h⁻¹ and the K31 is 0.167 h⁻¹. For the same compound, in data set [2] (setting [9]), the Ka amounted to 2.425 h⁻¹, the “R_AUC(t/∞)” value was 89.9%, the T1/2ka is 0.286 and the Tmax was determined as 1.768 h. In data set [2] (setting [9]), the V1 came out at 529.323 L/kg, the V2 worked out at 1478.868 L/kg, the V3 is -302.598 L/kg and the t1/2α was 12.2 min. Also, in data set [2] (setting [9]), the t1/2β is given as 3.029 h and the t1/2γ stood at 3.513 h. Besides, in data set [3], the “protective effect on PC12 nerve cells” value is “almost the same protective effects”.
